# Where a name gives a salt, the structure may show the parent alone.
# How the values were obtained:
# HEK293 = test: cells; assay type: functional, Homo sapiens, ATCC CRL1573; settings: Homo sapiens, ATCC CRL1573, HEK293; ASSAY_TEST Inhibition of Cell Viability; detection method Resazurin; Fluorescence (ex560/em590); MEDIA DMEM with 10% FBS; plate type 384well; TC; CORNING #3712; time 18 hr; read-out: CC50
# Candida albicans = test: microbe, parasite or virus in culture; settings: ATCC 90028, ASSAY_TEST Inhibition of Fungal Growth, detection method Absorption (OD530), plate type 384well, NBS, CORNING #3640
# Description: Antifungal activity against Candida albicans ATCC 90028 (CO-ADD:FG_001); MIC in YNB media using NBS plates, by OD630
# Acinetobacter baumannii = test: microbe, parasite or virus in culture; settings: ATCC 19606, 18 h, ASSAY_TEST Inhibition of Bacterial Growth, detection method Absorption (OD600), MEDIA CAMHB, plate type 384well, NBS, CORNING #3640
# Description: Antibacterial activity against Acinetobacter baumannii ATCC 19606 (CO-ADD:GN_034); MIC in CAMBH media using NBS plates, by OD600
# Staphylococcus aureus = test: microbe, parasite or virus in culture; settings: ATCC 43300, 18 h, ASSAY_TEST Inhibition of Bacterial Growth, detection method Absorption (OD600), MEDIA CAMHB, plate type 384well, NBS, CORNING #3640
# Description: Antibacterial activity against Staphylococcus aureus MRSA ATCC 43300 (CO-ADD:GP_020); MIC in CAMBH media, using NBS plates, by OD(600)
# Klebsiella pneumoniae = test: microbe, parasite or virus in culture; settings: ATCC 700603, 18 h, ASSAY_TEST Inhibition of Bacterial Growth, detection method Absorption (OD600), MEDIA CAMHB, plate type 384well, NBS, CORNING #3640
# Description: Antibacterial activity against Klebsiella pneumoniae MDR ATCC 70063 (CO-ADD:GN_003); MIC in CAMBH media using NBS plates, by OD(600)
# Pseudomonas aeruginosa [1] = test: Antibacterial activity against Pseudomonas aeruginosa PAO397 [PAO1 d(mexAB-oprM) d(mexCD-oprJ) d(mexEF-oprN) d(mexJKL) d(mexXY) d(opmH)] (CO-ADD:GN_211); MIC in CAMBH media using NBS plates, by OD(600); assay type: functional; settings: ASSAY_TEST Inhibition of Bacterial Growth, detection method Absorption (OD600), MEDIA CAMHB, plate type 384well, CORNING #3640, time 18 hr
# Escherichia coli = test: microbe, parasite or virus in culture; settings: ATCC 25922, 18 h, ASSAY_TEST Inhibition of Bacterial Growth, detection method Absorption (OD600), MEDIA CAMHB, plate type 384well, NBS, CORNING #3640
# Description: Antibacterial activity against Escherichia coli ATCC 25922 (CO-ADD:GN_001); MIC in CAMBH media using NBS plates, by OD(600)
# Pseudomonas aeruginosa [2] = test: microbe, parasite or virus in culture; settings: ATCC 27853, 18 h, ASSAY_TEST Inhibition of Bacterial Growth, detection method Absorption (OD600), MEDIA CAMHB, plate type 384well, NBS, CORNING #3640
# Description: Antibacterial activity against Pseudomonas aeruginosa ATCC 27853 (CO-ADD:GN_042); MIC in CAMBH media using NBS plates, by OD(600)
# Description for Cryptococcus neoformans: Antifungal activity against Cryptococcus neoformans H99 ATCC 208821 (CO-ADD:FG_002); MIC in YNB media using NBS plates, by Resazurin OD(600-570)
Structure (SMILES),MIC (Candida albicans) [µM],MIC (Acinetobacter baumannii) [µM],MIC (Staphylococcus aureus) [µM],MIC (Klebsiella pneumoniae) [µM],MIC (Pseudomonas aeruginosa [1]) [µM],MIC (Escherichia coli) [µM],MIC (Pseudomonas aeruginosa [2]) [µM],MIC (Cryptococcus neoformans) [µM],CC50 (HEK293) [µM]
c1cc(CN2CCCNCCNCCCNCC2)ccc1CN1CCCNCCNCCCNCC1 [PLERIXAFOR],> 20,> 20,> 20,> 20,> 20,> 20,> 20,> 20,> 20
Cc1cc(NS(=O)(=O)c2ccc(-c3ccc(F)cc3F)cc2)no1,> 20,> 20,> 20,> 20,> 20,> 20,> 20,> 20,> 20
O=C(O)c1ccc(-n2nc(-c3ccccc3O)nc2-c2ccccc2O)cc1 [DEFERASIROX],> 20,> 20,> 20,> 20,> 20,> 20,> 20,> 20,> 20
O=C(Nc1ncc(Cc2cccc3ccccc23)s1)C1CCCCC1,> 20,> 20,> 20,> 20,> 20,> 20,> 20,> 20,> 20
Cn1cncc1[C@@](N)(c1ccc(Cl)cc1)c1ccc2c(c1)c(-c1cccc(Cl)c1)cc(=O)n2C [TIPIFARNIB],> 20,> 20,20,> 20,> 20,> 20,> 20,> 20,8.09
O=C(N[C@H](Cc1cccc2ccccc12)C(=O)NCCc1c[nH]cn1)C1Cc2ccccc2C1,> 20,> 20,> 20,> 20,> 20,> 20,> 20,> 20,> 20
COc1ccc(CNC(=O)C2CCN([C@H](C)c3cccc4ccccc34)CC2)cc1,> 20,> 20,> 20,> 20,> 20,> 20,> 20,> 20,> 20
CN1c2ccc(Cl)cc2N(c2ccccc2)C(=O)c2cn(Cc3ccc(CN4CCOCC4)cc3)nc21,> 20,> 20,> 20,> 20,> 20,> 20,> 20,> 20,> 20
CCOc1noc2cc(OCCC3CCN(c4ccc(C)nn4)CC3)ccc12,> 20,> 20,> 20,> 20,> 20,> 20,> 20,> 20,> 20
O=C(NC(=O)N1CCCc2ccccc21)c1cccc(Cl)c1,> 20,> 20,> 20,> 20,> 20,> 20,> 20,> 20,> 20
Nc1nc(O)c(Br)c(-c2cccc(Cl)c2)n1,> 20,> 20,> 20,> 20,> 20,> 20,> 20,> 20,> 20
CCCCCOc1ccc(/C=C2\Oc3c(ccc(O)c3O)C2=O)c(O)c1,> 20,> 20,> 20,> 20,> 20,> 20,> 20,> 20,> 20
c1ccc(Cn2c(-c3ccccn3)nc3ccccc32)cc1,> 20,> 20,> 20,> 20,> 20,> 20,> 20,> 20,> 20
O=C(N[C@H](CCS)C(=O)N[C@H](Cc1ccccc1)C(=O)O)c1cc2ccccc2[nH]1,> 20,> 20,> 20,> 20,> 20,> 20,> 20,> 20,> 20

# More lines, main results first:
MIC (Candida albicans) [µM],MIC (Acinetobacter baumannii) [µM],MIC (Staphylococcus aureus) [µM],MIC (Klebsiella pneumoniae) [µM],MIC (Pseudomonas aeruginosa [1]) [µM],MIC (Escherichia coli) [µM],MIC (Pseudomonas aeruginosa [2]) [µM],MIC (Cryptococcus neoformans) [µM],Structure (SMILES),CC50 (HEK293) [µM]
> 20,> 20,> 20,> 20,> 20,> 20,> 20,> 20,Cc1ccc(C)c(OCCCCCCN2C[C@H](O)[C@@H](O)[C@H](O)[C@H]2CO)c1,> 20
> 20,> 20,> 20,> 20,> 20,> 20,> 20,> 20,CC[C@@H]1C(=O)OC[C@@H]1Cc1cncn1C [PILOCARPINE HYDROCHLORIDE],> 20
> 20,> 20,> 20,> 20,> 20,> 20,> 20,> 20,COC(=O)Nc1nc2c(C)cccc2[nH]1,> 20
> 20,> 20,> 20,> 20,> 20,> 20,> 20,> 20,COc1ccc(C)cc1NC(=O)c1ccc(S(=O)(=O)N2CCCCC2)cc1,> 20
> 20,> 20,> 20,> 20,> 20,> 20,> 20,> 20,Cc1ncc([N+](=O)[O-])n1CC(O)CN1CCOCC1 (stereo not given) [MORINIDAZOLE],> 20
> 20,> 20,> 20,> 20,> 20,> 20,> 20,> 20,CCCC(=O)OCCc1ccccc1,> 20
> 20,> 20,> 20,> 20,> 20,> 20,> 20,> 20,N[C@H]1CCC[C@H]1C(=O)O,> 20
> 20,> 20,> 20,> 20,> 20,> 20,> 20,0.312,COC(=O)Nc1nc2cc(Sc3ccccc3)ccc2[nH]1 [FENBENDAZOLE],8.24
> 20,> 20,1.25,> 20,> 20,> 20,> 20,> 20,Cn1cc(NC(=O)c2cc(NC(=O)c3ccc(/C=C/c4cnc5ccccc5c4)cc3)cn2C)cc1C(=O)NCCN1CCOCC1 [MGB-BP-3],1.71
> 20,> 20,> 20,> 20,> 20,> 20,> 20,> 20,[N-]=[N+]=N[C@H]1C[C@H](n2ccc(=O)[nH]c2=O)O[C@@H]1CO [NAVURIDINE],> 20
> 20,> 20,> 20,> 20,> 20,> 20,> 20,> 20,NC(=O)c1ccc(I)c([N+](=O)[O-])c1 [INIPARIB],> 20
